Assay results taken from ChEMBL document CHEMBL1135988, “Synthesis and biological evaluation of new citrate-based siderophores as potential probes for the mechanism of iron uptake in mycobacteria” (2002).

Test system: Mycobacterium avium subsp. paratuberculosis
Assay: Ability to act as growth factor for Mycobacterium paratuberculosis at 2.4 uM concentration, expressed as growth index
Assay type: functional, mycobacteria paratuberculosis

CCCCC/C=C/C(=O)N(O)CCCNC(=O)CC(O)(CC(=O)NCCCN(O)C(=O)/C=C/CCCCC)C(=O)OC(C)(C)C
GI: 0.69

COC(=O)[C@H](CCCCN(O)C(=O)/C=C/c1ccccc1)NC(=O)CC(O)(CC(=O)N[C@@H](CCCCN(O)C(=O)/C=C/c1ccccc1)C(=O)OC)C(=O)O
GI: 2.5

O=C(CC(O)(CC(=O)NCCCN(O)C(=O)/C=C/c1ccccc1)C(=O)O)NCCCN(O)C(=O)/C=C/c1ccccc1
GI: 0.76

CCCCC/C=C/C(=O)N(O)CCCNC(=O)CC1(O)CC(=O)N(CCCN(O)C(=O)/C=C/CCCCC)C1=O (centres undefined)
GI: 4.6

CCCCCCCCCCCCC/C=C/C(=O)N(O)CCCC[C@H](NC(=O)[C@@H]1COC(c2ccccc2O)=N1)C(=O)OC(C(C)C)C(C)C(=O)N[C@H]1CCCCN(O)C1=O (some centres undefined)
GI: 1

CC(C)(C)OC(=O)C(O)(CC(=O)NCCCN(O)C(=O)/C=C/c1ccccc1)CC(=O)NCCCN(O)C(=O)/C=C/c1ccccc1
GI: 4.6

O=C(CC(O)(CC(=O)NCCCCN(O)C(=O)/C=C/c1ccccc1)C(=O)O)NCCCCN(O)C(=O)/C=C/c1ccccc1
GI: 1.5

CCCCC/C=C/C(=O)N(O)CCCNC(=O)CC(O)(CC(=O)NCCCN(O)C(=O)/C=C/CCCCC)C(=O)O
GI: 1

CC(=O)N(O)CCCCCNC(=O)CCC(=O)N(O)CCCCCNC(=O)CCC(=O)N(O)CCCCCN [DEFEROXAMINE]
GI: 0.92
